Laboratory results from patent publication US20120059009A1, “ANTI-TUMOR AGENT CONTAINING TEGAFUR-GIMERACIL-OTERACIL POTASSIUM COMBINATION DRUG AND OXALIPLATIN” (TAIHO PHARMACEUTICAL CO., LTD., priority 2009, published 2012).
Read-outs that look alike come from different tables or passages of the source.

Assays:
[1] = tested on: human colorectal cancer COL-1; assay: Anti-tumor effect (IR) in human colorectal cancer COL-1 xenograft model; assay type: in vivo, male nude mice (BALB/cA-nu); conditions: in the combination S-1 7 mg/kg, l-OHP 4.2 mg/kg
Description: A fragment (about 2 mm diameter) of human colorectal cancer COL-1 was transplanted into the right axilla of each of male nude mice (BALB/cA-nu, 4-week old, purchased from CLEA Japan, Inc.), and the tumor volume ((longer diameter)×(shorter diameter)^2/2) of the mouse was calculated. The mice were allocatedinto groups so that the average tumor volumes of the groups were adjusted to about 220 mm^3 (8 mice/group). Drug administration was started on the next day after the day of grouping (Day 0). […] TSU-68 was orally administered once a day at a dose of 200 or 400 mg/kg/day from Day 1 to Day 28. A group to which no drug was administered was set as a control group. During drug administration, the tumor volume of each mouse was measured every 3 to 4 days, and the relative tumor volume (RTV) and the anti-tumor effect (IR (%)) of each group were calculated by the formulas below. The statistical significance of difference of the anti-tumor effect between drug-administration group and control group was analyzed by the Student's t-test (both sides) using the average RTV value of these groups. A P value of p<0.05 was considered statistically significant. Furthermore, the advantage in anti-tumor effect (augmentation effect) of the S-1/l-OHP/TSU-68 combination group, with respect to each of the control group, the S-1/l-OHP combination group and the TSU-68 single administration group, was statistically analyzed through the IUT test. […] Relative tumor volume (RTV)=(Tumor volume on Day N)/(Tumor volume on Day 1) [F1] Anti-tumor effect (IR(%))=[1−(RTV of drug-administration group)/(RTV of control group)]×100

[2] = tested on: metastatic colorectal cancer patients; assay type: in vivo, human
Description: The safety of the case where metastatic colorectal cancer patients (9 cases) were subjected to l-OHP and S-1 combination therapy with administration of TSU-68 was examined. In this study, one cycle of the treatment was consisted of 21 days. To each patient, l-OHP was intravenously administered at a dose of 130 mg/m^2 (per body surface area) on Day 1, and S-1 was orally administered, twice a day after meal, at a daily dose (in terms of tegafur) of 70 mg/m^2 (per body surface area) from Day 1 to Day 14. The 7 days from Day 15 to Day 21 were placed as a rest period. TSU-68 was orally administered every day, twice a day after meal, at a daily dose of 400 mg to 800 mg.
The above study was carried out in order to determine the recommended dose (RD) of TSU-68 in the case where l-OHP and S-1 combination therapy, whose efficacy to colorectal cancer had been established, may be carried out in combination with administration of TSU-68, without causing adverse side effects.
The safety was evaluated according to NCI-CTCAE (3rd edition, the National Cancer Institute's Common Terminology Criteria for Adverse Events version 3.0).

Cc1[nH]c(/C=C2\C(=O)Nc3ccccc32)c(C)c1CCC(=O)O [TSU-68, 3-[2,4-dimethyl-5-[[(Z)-2,3-dihydro-2-oxo-1H-indol-3-ylidene]methyl]-1H-pyrrol-3-yl]propanoic acid]
IR (%) Day 15 ([1]; TSU-68 200 mg/kg/day p.o.): 47.5%
IR (%) Day 15 ([1]; TSU-68 400 mg/kg/day p.o.): 51.4%
IR (%) Day 22 ([1]; TSU-68 200 mg/kg/day p.o.): 47.8%
IR (%) Day 22 ([1]; TSU-68 400 mg/kg/day p.o.): 46.3%
IR (%) Day 29 ([1]; TSU-68 200 mg/kg/day p.o.): 49.2%
IR (%) Day 29 ([1]; TSU-68 400 mg/kg/day p.o.): 52.8%
anti-tumor effect, 400 mg group versus 800 mg group ([2]; TSU-68 400 or 800 mg daily with l-OHP and S-1): almost equivalent
dose-limiting toxicity (DLT) ([2]; human, in vivo, 21 days): dose-limiting toxicity (DLT) including singultus and skin response in the hands and feet (Grade 3) or neutropenia (Grade 2) was observed
recommended dose (RD) of TSU-68 in the combination therapy ([2]; human, in vivo, 21 days): 400 mg
dose-limiting toxicity (DLT) ([2]; in vivo): no DLT was observed
